The NIST ThermoML archive (doi:10.1021/je900632q)

Conditions: 101.3 kPa, Liquid

CCCCn1cc[n+](C)c1.N#CN=C=[N-] [1-butyl-3-methylimidazolium dicyanamide]
Conditions | mass density [kg/m3] | viscosity [mPa·s]
278.15 K | 1075.8 | 82.07
283.15 K | 1072.6 | 62.54
288.15 K | 1069.4 | 48.93
293.15 K | 1066.2 | 39.14
298.15 K | 1063.1 | 31.8
303.15 K | 1059.9 | 26.29
308.15 K | 1056.8 | 21.79
313.15 K | 1053.7 | 18.5
318.15 K | 1050.6 | 15.88
323.15 K | 1047.5 | 13.78
328.15 K | 1044.4 | 12.06
333.15 K | 1041.3 | 10.65
338.15 K | 1038.2 | 9.475
343.15 K | 1035.1 | 8.485
348.15 K | 1032.1 | 7.643
353.15 K | 1029 | 6.923
358.15 K | 1025.8 | 6.304
363.15 K | 1022.7 | 5.77
